This is an account of results in US11643428B2, “Therapeutic drug for neurodegenerative disease and application thereof” (SHANGHAI PHARMACEUTICALS HOLDING CO., LTD., priority 2018, dated 2023).

The subject of assay [1] is APP/PS1 transgenic mice (AD mice). The assay is described as follows: Morris water maze test. It is filed as in vivo, mouse. Conditions: 10 mg/kg intragastrically daily, 90 days, vs model group. As for the experimental part: Twenty 5-6 months aged, male APP/PS1 transgenic mice (AD mice) were selected, and were divided into a model group and a polysaccharide administration group randomly by random number table method. PL201 was intragastrically administered daily (10 mg/kg mouse body weight), meanwhile, 10 non-transgenic mice were used as a negative control group (without PL201 administration). After 90 days of consecutive administration, Morris water maze behavior test was used to detect the effects of PL201 on learning and cognitive function of APP/PS1 mice.
Classic Morris water maze test procedure was used in the test, which includes two parts: i.e., the place navigation task and the spatial probe task. The test lasted for 7 days, and the spatial probe task was added at Day 4 and Day 7.
It can be seen from the test results in FIG. 1 that the escape latency of all the three groups of animals after 3 days of training was shortened in the place navigation task, illustrating that mice in each group can successfully complete the spatial learning task of the water maze. The escape latency was used as a test indicator.

The subject of assay [2] is MPTP mice model. The assay is described as follows: TH immunohistochemistry of substantia nigra and striatum, MPTP model. Particulars: PL201+MPTP vs NS+MPTP group, Day 7 after MPTP modeling. It is filed as in vivo, mouse. As for the experimental part: (§1) The mice were randomly divided into 4 groups: a group in which the mice was administrated with normal saline (NS), a MPTP model group in which the mice was intragastrical administrated with normal saline (NS+MPTP), a group in which the mice was intragastrical administrated with 50 mg of compound PL201 (PL201), and a MPTP model group in which the mice was intragastrical administrated with compound PL201 (PL201+MPTP).
(§2) 11 animals were set in the group in which the mice was administrated with normal saline (NS), 14 animals were set in the MPTP model group in which the mice was intragastrical administrated with normal saline (NS+MPTP), 4 animals were set in the group in which the mice was intragastrically administrated with 50 mg of compound PL201 (PL201), 15 animals were set in the MPTP model group in which the mice was intragastrically administrated with the compound PL201 (PL201+MPTP).
The administration started on the day of animal grouping: mice in the NS and the NS+MPTP group were intragastrically administrated with normal saline, and mice in the other two groups were administrated with compound PL201 once a day for 7 consecutive days. From Day 7, mice in the NS and the PL201 group were intraperitoneally injected with 5 ml/kg normal saline, while mice in the NS+MPTP and the PL201+MPTP group were intraperitoneally injected with 25 mg/kg of MPTP once a day for a total of 5 days. […]

In a further assay the test system is AD mice. The assay can be described thus: Aβ plaques in brain, thioflavin S staining. It is filed as in vivo, mouse. Conditions: 10 mg/kg intragastrically, 90 days, vs control group. As for the experimental part: The inventors conducted PL201 administration experiments on AD mice (5-6 months aged AD mice were selected). Each mouse was intragastrically administrated 100 μl PL201, and the dosage was 10 mg/kg mouse body weight. Moreover, mice in the control group were administrated 100 μl water once daily for 90 days, and from Day 60 were intraperitoneally injected with 5-bromo-2′-deoxyuridine (BrdU) of 50 mg/kg mouse body weight once daily for 7 days. After 90 days of administration, the mice were perfused with PFA after anesthesia, and the whole brain was taken for further experiments.
The inventors performed frozen sectioning coronally with a thickness of 30 μm on the whole brain sample of AD mice after administration in example 2, and the slices were stained with thioflavin S and DAPI. The stained brain slices were then photographed with Olympus FV100i or Leica SP-8.

Assay [3] concerns MPTP mice model. The assay can be described thus: Striatal dopaminergic nerve fibers, TH western blot, MPTP model. The class given is in vivo, mouse. Particulars: PL201+MPTP vs NS+MPTP group, Day 7 after MPTP modeling. The protocol: as §1, §2
The administration started on the day of animal grouping: mice in the NS and the NS+MPTP group were administrated with normal saline, and mice in the other two groups were administrated with compound PL201 once a day for 7 consecutive days. […]
On Day 7 after MPTP modeling, animals in each group were anesthetized with 10% chloral hydrate. […] The fluorescence signal was detected by Odyssey near-infrared fluorescence scanner and made statistics.

Another assay deals with Human neural stem cells. The assay is described as follows: Mitochondrial membrane potential, JC-1 staining. Conditions: Aβ-treated cells. It is filed as cell-based. As for the experimental part: Mitochondrial membrane potential is the main parameter of mitochondrial function, and mitochondrial dysfunction is a prominent feature of AD brain. In this example, the inventors have explored whether PL201 has the effect of improving mitochondrial function by detecting the level of cell mitochondrial membrane potential of human neural stem cells.
Mitochondria was stained with JC-1 for 20 minutes and washed with washing buffer, then immunofluorescence analysis was performed.

As to `COc1cc(/C=C/C(=O)OC2OC(C)C(O)C(O)C2O)ccc1O` [PL201, (α-L-rhamnopyranosyl) ferulic acid ester], the “learning and memory abilities (escape latency)” value in assay [1] is recorded as “significantly improved”. In the assay on MPTP mice model [2], the “level of striatal dopaminergic nerve fibers (TH immunohistochemistry, mean optical density)” value is given as “significantly increased” and the “number of dopaminergic neurons in substantia nigra (TH positive cells)” value was “significantly increased”. Further, in the assay with AD mice, the “Aβ plaques in brain” value was “less Aβ plaques”. Also, in the assay with MPTP mice model [3], the “level of striatal dopaminergic nerve fibers (TH western blot)” value is “significantly increased”. Besides, the mitochondrial membrane potential result in the assay with Human neural stem cells is “mitigated the deleterious effect of Aβ to a lesser extent”.
